Assay results as given in US7763657B2, “Compounds, isomer thereof, or pharmaceutically acceptable salts thereof as vanilloid receptor antagonist; and pharmaceutical compositions containing the same” (Amorepacific Corporation, priority 2005, dated 2010).

Legend:
vanilloid receptor = biological target: T1, vanilloid receptor (Rattus norvegicus, UniProt O35433); test: 45Ca influx test (calcium uptake) in primary cultured DRG neurons, antagonism of capsaicin; assay type: cell-based; details: neonatal SD rat DRG nerve cells; capsaicin 0.5 μM; 45Ca 10 μCi/ml; 10 mins room temperature; read-out: Antagonist Calcium Uptake Test (IC50)
T1 construct: DRG nerve cells from the primary culture of 2 days were equilibrated; endogenous in cells; host or cells: primary cultured dorsal root ganglion neurons of neonatal SD rats
Procedure: 1) Separation of Spinal Dorsal Root Ganglia (DRG) in Newborn Rats and Primary Culture Thereof
Neonatal (2-3 day old or younger than 2-3 day old) SD rats were put in ice for 5 minutes to anesthetize and disinfected with 70% ethanol. […] The DRG were incubated sequentially at 37° C. for 30 min in 200 U/ml collagenase and 2.5 mg/ml trypsin, separately. The ganglia were washed twice with DME/F12 medium supplemented with 10% horse serum, triturated through a fire-polished Pasteur pipette, filtered through Nitex 80 membrane to obtain single cell suspension and the suspension was washed once more. This was subjected to centrifugation, then resuspended in cell culture medium at certain level of cell density. As the cell culture medium, DME/F12 medium supplemented with 10% horse serum was diluted with identical medium conditioned by C6 glioma cells 2 days on a confluent monolayer (1:1), and NGF (Nerve Growth Factor) was added to adjust 200 ng/ml as final concentration. After the cells were grown 2 days in medium where cytosine arabinoside (Ara-C, 100 μM) was added to kill dividing nonneuronal cells, medium was changed to one without Ara-C. The resuspended cells were plated at a density of 1500-2000 neurons/well onto Terasaki plates previously coated with 10 μg/ml poly-D-ornithine.
2) ^45Ca Influx Experiments
DRG nerve cells from the primary culture of 2 days were equilibrated by washing 4 times with HEPES (10 mM, pH 7.4)-buffered Ca^2+, Mg^2+-free HBSS (H—HBSS). The solution in each well was removed from the individual well. Medium containing the test compound plus capsaicin (final concentration 0.5 μM) and ^45Ca (final concentration 10 μCi/ml) in H—HBSS was added to each well and incubated at room temperature for 10 mins. Terasaki plates were washed five times with H—HBSS and dried at room temperature. To each well, 0.3% SDS (10 μl) was added to elute ^45Ca. After the addition of scintillation cocktail of into each well, the amount of ^45Ca influx into neuron was measured by counting radioactivity.

Male ICR mice = test: Analgesic activity test: mouse writhing test by inducing with phenyl-p-quinone; assay type: in vivo; details: ip, 0.5 h, number of writhes vs control, read-out: Analgesic effect (% Inhibition); for inhibition in vivo at 1 mg/kg: Dose 1 mg/kg intraperitoneally 30 min before phenyl-p-quinone
Procedure: 3. Analgesic Activity Test: Mouse Writhing Test by Inducing with phenyl-p-quinone
Male ICR mice (mean body weight 25 g) were maintained in a controlled lighting environment (12 h on/12 h off) for experiment. Animals received an intraperitoneal injection of 0.3 ml of the chemical irritant phenyl-p-quinone (dissolved in saline containing 5% ethanol to be a dose of 4.5 mg/kg) and 6 mins later, the number of abdominal constrictions was counted in the subsequent 6 mins period. Animals (10 animals/group) received 0.2 ml of test compounds solution in vehicle of ethanol/Tween 80/saline (10/10/80) intraperitoneally 30 min before the injection of phenyl-p-quinone. A reduction in the number of writhes responding to the test drug compound relative to the number responding in saline control group was considered to be indicative of an analgesic effect. Analgesic effect was calculated by % inhibition equation (% inhibition=(C−T)/C×100), wherein C and T represent the number of writhes in control and compound-treated group, respectively (Table 3).

T1 sequence (O35433 whole entry): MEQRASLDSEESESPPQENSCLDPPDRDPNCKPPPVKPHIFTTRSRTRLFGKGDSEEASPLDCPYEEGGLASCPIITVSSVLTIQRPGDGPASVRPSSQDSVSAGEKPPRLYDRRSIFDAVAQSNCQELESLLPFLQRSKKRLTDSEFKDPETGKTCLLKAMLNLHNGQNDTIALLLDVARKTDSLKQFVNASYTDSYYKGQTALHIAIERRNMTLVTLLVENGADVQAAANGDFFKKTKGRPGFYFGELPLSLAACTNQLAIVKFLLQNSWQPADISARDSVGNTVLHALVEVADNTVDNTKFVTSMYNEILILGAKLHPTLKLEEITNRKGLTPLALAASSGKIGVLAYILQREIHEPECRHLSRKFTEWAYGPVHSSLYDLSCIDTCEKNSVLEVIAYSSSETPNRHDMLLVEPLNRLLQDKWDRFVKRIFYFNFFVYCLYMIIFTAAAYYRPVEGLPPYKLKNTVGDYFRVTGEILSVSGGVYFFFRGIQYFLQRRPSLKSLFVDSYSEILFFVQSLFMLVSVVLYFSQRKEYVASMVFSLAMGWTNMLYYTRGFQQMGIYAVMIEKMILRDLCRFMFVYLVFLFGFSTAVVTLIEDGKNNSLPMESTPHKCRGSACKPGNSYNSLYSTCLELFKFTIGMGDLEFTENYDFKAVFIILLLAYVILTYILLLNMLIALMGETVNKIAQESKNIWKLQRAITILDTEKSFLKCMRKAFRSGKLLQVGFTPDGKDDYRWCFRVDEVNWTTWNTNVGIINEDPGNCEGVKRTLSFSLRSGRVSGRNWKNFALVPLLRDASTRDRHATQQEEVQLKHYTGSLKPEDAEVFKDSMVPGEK

Row | SMILES | IC50 (vanilloid receptor) [nM] | inhibition in vivo at 1 mg/kg (Male ICR mice) [%] | inhibition in vivo at 0.3 mg/kg (Male ICR mice; Dose 0.3 mg/kg intraperitoneally 30 min before phenyl-p-quinone) [%]
1 | C=Cc1cc(CNC(=O)/C=C/c2ccc(C(C)(C)C)cc2)cc(F)c1NS(C)(=O)=O [Example 15, 3-(4-t-butylphenyl)-N-(3-fluoro-4-methanesulfonylamino-5-vinylbenzyl)acrylamide] | 34 | 60 | –
2 | C=Cc1cc(CNC(=O)CCc2ccc(C(C)(C)C)cc2)cc(F)c1NS(C)(=O)=O [Example 46, 3-[4-(tert-butyl)phenyl]-N-[3-fluoro-4-(methanesulfonylamino)-5-vinylbenzyl]propionamide] | 25 | 43 | –
3 | C=Cc1cc(CNC(=O)CCc2ccc(C(C)(C)C)cc2)ccc1NS(C)(=O)=O [Example 45, 3-[4-(tert-butyl)phenyl]-N-[4-(methanesulfonylamino)-3-vinylbenzyl]propionamide] | 63 | 82 | –
4 | C=Cc1cc(CNC(=O)/C=C/c2ccc(C(C)(C)C)cc2N2CCN(C)CC2)cc(F)c1NS(C)(=O)=O [Example 25, 3-[4-tert-Butyl-2-(4-methylpiperazin-1-yl)phenyl]-N-(3-fluoro-4-methanesulfonylamino-5-vinylbenzyl)acrylamide] | – | 64 | –
5 | C=Cc1cc([C@@H](C)NC(=O)/C=C/c2ccc(C(C)(C)C)cc2)ccc1NS(C)(=O)=O [Example 14, 3-(4-t-butylphenyl)-N-[1-(R)-(4-methanesulfonylamino-3-vinylphenyl)ethyl]acrylamide] | 50 | 58 | –
6 | C#Cc1cc(CNC(=O)/C=C/c2ccc(C(C)(C)C)cc2)cc(F)c1NS(C)(=O)=O [Example 16, 3-(4-t-butylphenyl)-N-(3-fluoro-5-ethynyl-4-methanesulfonylamino-benzyl)acrylamide] | 47 | 68 | –
7 | C=Cc1cc(CNC(=O)/C=C/c2ccc(C(C)(C)C)cc2)ccc1NS(C)(=O)=O [Example 17, 3-(4-t-butylphenyl)-N-(4-methanesulfonylamino-3-vinylbenzyl)acryl amide] | 58 | 63 | –
8 | C=Cc1cc(CNC(=O)NCc2ccc(C(C)(C)C)cc2)cc(F)c1NS(C)(=O)=O [Example 2, N-{4-[3-(4-t-butylbenzyl)ureidomethyl]-2-fluoro-6-vinylphenyl}methanesulfonamide] | 98 | – | 57
9 | C=Cc1cc([C@@H](C)NC(=O)NCc2ccc(C(C)(C)C)cc2)ccc1NS(C)(=O)=O [Example 6, N-(4-{1-(R)-[3-(4-t-butylbenzyl)ureido]ethyl}-2-vinylphenyl)methanesulfonamide] | 82 | 56 | –
10 | C=Cc1cc(CNC(=O)CCc2ccc(C(C)(C)C)cc2OC2CCOCC2)cc(F)c1NS(C)(=O)=O [Example 41, 3-[4-tert-Butyl-2-(tetrahydropyran-4-yloxy)phenyl]-N-(3-fluoro-4-methanesulfonylamino-5-vinylbenzyl)propionamide] | 43 | 44 | –
